From article PMC3016878 (Chembiochem : a European journal of chemical biology, 2010)

Biological target: AAC(3)-IV; AAC(3) (Escherichia coli, UniProt Q306W4)
Test: UV-vis acetyltransferase assay, Michaelis-Menten
Assay type: biochemical
Details: co-substrate apramycin

For `CC(=O)SCCNC(=O)CCNC(=O)[C@H](O)C(C)(C)COP(=O)(O)OP(=O)(O)OC[C@H]1O[C@@H](n2cnc3c(N)ncnc32)[C@H](O)[C@@H]1OP(=O)(O)O` [AcCoA], the KM was “Michaelis-Menten plot for modification of apramycin by AcCoA and AzAcCoA”.
